Measured values taken from PMC6150234, “HPLC Analysis and Biochemical Characterization of LOX from Eschscholtzia californica Cham” (Molecules : A Journal of Synthetic Chemistry and Natural …, 2017).

Test system: T1, California poppy LOX (purified LOX from California poppy seedlings; 9/13-LOX)
T1 construct: 85 kDa on SDS-PAGE
Assay: A234 spectrophotometry; Lineweaver-Burk
Type: biochemical, Eschscholzia californica
Details: 100 mM potassium phosphate pH 6.5, room temperature; 0.476-1.33 mM LA

## CCCCC/C=C\C/C=C\CCCCCCCC(=O)O [linoleic acid]
  Km: 2600 µM
